Experimental data published in ChEMBL document CHEMBL1821612, “Discovery of novel antitubercular 3a,4-dihydro-3H-indeno[1,2-c]pyrazole-2-carboxamide/carbothioamide analogues” (Bioorg Med Chem Lett, 2011).
In brackets after ≈: the same amount, converted by molar mass.

Experiments:
[1] = test system: Mycobacterium tuberculosis; test: Antimycobacterial activity against isoniazid-resistant Mycobacterium tuberculosis after 2 weeks by BACTEC 460 radiometric method; assay type: functional; conditions: 336 h
[2] = test system: Mycobacterium tuberculosis; test: Ratio of isoniazid MIC to compound MIC for isoniazid-resistant Mycobacterium tuberculosis; assay type: functional

SMILES | MIC [1] [µM] | Ratio [2]
COc1cc2c(cc1OC)C1=NN(C(=O)Nc3ccc(C)cc3C)C(c3ccncc3)C1C2 (stereo unspecified) | > 12.5 | –
COc1cc2c(cc1OC)C1=NN(C(=O)Nc3ccc(C)cc3C)C(c3ccccc3Cl)C1C2 (stereo unspecified) | 10 (≈ 4.76 µg/mL) | –
COc1cc2c(cc1OC)C1=NN(C(=O)Nc3ccc(C)cc3C)C(c3ccc(F)cc3)C1C2 (stereo unspecified) | 12.5 (≈ 5.74 µg/mL) | –
COc1ccc(C2C3Cc4cc(OC)c(OC)cc4C3=NN2C(=O)Nc2ccc(C)cc2C)cc1OC (stereo unspecified) | > 12.5 | –
COc1cc2c(cc1OC)C1=NN(C(=O)Nc3ccc(C)cc3C)C(c3ccccc3)C1C2 (stereo unspecified) | > 12.5 | –
COc1ccc(C2C3Cc4cc(OC)c(OC)cc4C3=NN2C(=O)Nc2ccc(C)cc2C)cc1 (stereo unspecified) | > 12.5 | –
COc1cc2c(cc1OC)C1=NN(C(=O)Nc3c(C)cccc3C)C(c3ccncc3)C1C2 (stereo unspecified) | > 12.5 | –
COc1cc2c(cc1OC)C1=NN(C(=O)Nc3c(C)cccc3C)C(c3ccccc3Cl)C1C2 (stereo unspecified) | 12.5 (≈ 5.95 µg/mL) | –
COc1cc2c(cc1OC)C1=NN(C(=O)Nc3c(C)cccc3C)C(c3ccc(F)cc3)C1C2 (stereo unspecified) | 10 (≈ 4.6 µg/mL) | –
COc1ccc(C2C3Cc4cc(OC)c(OC)cc4C3=NN2C(=O)Nc2c(C)cccc2C)cc1OC (stereo unspecified) | > 12.5 | –
COc1cc2c(cc1OC)C1=NN(C(=O)Nc3c(C)cccc3C)C(c3ccccc3)C1C2 (stereo unspecified) | > 12.5 | –
COc1ccc(C2C3Cc4cc(OC)c(OC)cc4C3=NN2C(=O)Nc2c(C)cccc2C)cc1 (stereo unspecified) | > 12.5 | –
COc1cc2c(cc1OC)C1=NN(C(N)=S)C(c3ccncc3)C1C2 (stereo unspecified) | 10 (≈ 3.54 µg/mL) | –
COc1cc2c(cc1OC)C1=NN(C(N)=S)C(c3ccccc3Cl)C1C2 (stereo unspecified) | 10 (≈ 3.88 µg/mL) | –
COc1cc2c(cc1OC)C1=NN(C(N)=S)C(c3ccc(F)cc3)C1C2 (stereo unspecified) | 6.25 (≈ 2.32 µg/mL) | 2
COc1ccc(C2C3Cc4cc(OC)c(OC)cc4C3=NN2C(N)=S)cc1OC (stereo unspecified) | 12.5 (≈ 5.17 µg/mL) | –
COc1cc2c(cc1OC)C1=NN(C(N)=S)C(c3ccccc3)C1C2 (stereo unspecified) | 12.5 (≈ 4.42 µg/mL) | –
COc1ccc(C2C3Cc4cc(OC)c(OC)cc4C3=NN2C(N)=S)cc1 (stereo unspecified) | > 12.5 | –
NNC(=O)c1ccncc1 [ISONIAZID] | 12.5 (≈ 1.71 µg/mL) | –
CO[C@H]1/C=C/O[C@@]2(C)Oc3c(C)c(O)c4c(O)c(c(/C=N/N5CCN(C)CC5)c(O)c4c3C2=O)NC(=O)/C(C)=C\C=C\[C@H](C)[C@H](O)[C@@H](C)[C@@H](O)[C@@H](C)[C@H](OC(C)=O)[C@@H]1C [RIFAMPIN] | 3.12 (≈ 2.57 µg/mL) | –
